How the values were obtained:
Assay type in all cases: cell-based
human TLR7 = molecular target: T1, human TLR7 (Homo sapiens, UniProt Q9NYK1); assay: TLR activation, HEK-BLUE-hTLR7 SEAP reporter cells; conditions: HEK-BLUE-hTLR7, 16-20 h; SEAP response at least 2x vehicle control
T1 construct: host or cells: HEK293 (HEK-BLUE-hTLR7)
T1 sequence (Q9NYK1 27-1049): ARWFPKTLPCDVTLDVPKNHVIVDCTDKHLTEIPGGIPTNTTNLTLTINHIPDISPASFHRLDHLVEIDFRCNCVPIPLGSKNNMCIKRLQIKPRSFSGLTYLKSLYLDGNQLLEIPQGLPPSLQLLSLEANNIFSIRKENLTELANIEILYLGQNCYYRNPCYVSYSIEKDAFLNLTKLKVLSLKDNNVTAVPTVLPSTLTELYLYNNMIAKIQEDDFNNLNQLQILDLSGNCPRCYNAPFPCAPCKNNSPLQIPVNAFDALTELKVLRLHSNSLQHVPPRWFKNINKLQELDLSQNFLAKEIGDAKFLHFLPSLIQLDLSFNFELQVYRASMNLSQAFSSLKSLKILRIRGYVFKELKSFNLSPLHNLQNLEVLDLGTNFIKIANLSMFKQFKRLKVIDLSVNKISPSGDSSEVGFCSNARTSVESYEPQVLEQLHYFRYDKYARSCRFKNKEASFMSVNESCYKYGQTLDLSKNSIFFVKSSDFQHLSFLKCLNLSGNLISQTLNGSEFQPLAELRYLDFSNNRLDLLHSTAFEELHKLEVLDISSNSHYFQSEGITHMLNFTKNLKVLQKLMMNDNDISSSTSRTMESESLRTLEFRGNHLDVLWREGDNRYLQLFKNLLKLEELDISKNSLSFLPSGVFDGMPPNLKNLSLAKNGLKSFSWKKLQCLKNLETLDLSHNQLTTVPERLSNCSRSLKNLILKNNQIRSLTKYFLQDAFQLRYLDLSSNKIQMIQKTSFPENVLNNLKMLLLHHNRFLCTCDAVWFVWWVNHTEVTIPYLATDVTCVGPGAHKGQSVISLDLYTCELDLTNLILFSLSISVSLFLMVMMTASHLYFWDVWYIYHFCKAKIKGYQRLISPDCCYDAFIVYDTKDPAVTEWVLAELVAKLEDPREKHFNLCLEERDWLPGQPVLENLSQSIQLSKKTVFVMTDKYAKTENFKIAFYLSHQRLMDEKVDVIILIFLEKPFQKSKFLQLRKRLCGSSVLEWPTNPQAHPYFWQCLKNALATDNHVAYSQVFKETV
Protocol: (§1) HEK-BLUE-hTLR7 or hTLR8 reporter cells were obtained from InvivoGen, San Diego, CA. According to the manufacturer's description, these reporter cells were prepared by co-transfection of HEK293 cells with an inducible secreted embryonic alkaline phosphatase (SEAP) reporter gene and either the human TLR7 or TLR8 gene. The SEAP reporter gene was placed under the control of an IFN-β minimal promoter fused to five NF-κB and AP-1-binding sites. In the presence of a TLR ligand, activation of NF-κB and AP-1 occurs, resulting in a corresponding increase in SEAP levels. […]
(§2) For each compound, hTLR7, hTLR8, and their respective null control HEK cells were screened. […] Cell culture supernatants containing the SEAP reporter were collected after an incubation period of 16-20 h in a cell culture incubator (37° C. and 5% CO2), and either analyzed immediately or stored at −80° C. SEAP levels were measured using the colorimetric enzyme assay (QUANTI-BLUE (InvivoGen) according to manufacturer's instructions.
(§3) Specifically, the minimum effective concentration of each compound (micromolar) was determined as the lowest concentration of the compound that produced a SEAP expression response at least 2× greater than that observed with the vehicle control wells.

[1] = tested on: Human peripheral blood mononuclear cells (PBMC); assay: Cytokine induction in human cells (PBMC); conditions: 21-24 h, lowest concentration giving at least 2x negative control; for MEC to Induce Cytokine: IFN-alpha: ELISA; for MEC to Induce Cytokine: IFN-gamma / MEC to Induce Cytokine: TNF-alpha: multiplex bead assay
Protocol: Whole blood was obtained from healthy human donors and collected by venipuncture into vacutainer tubes or syringes containing EDTA. Human peripheral blood mononuclear cells (PBMC) were purified from the whole blood by density gradient centrifugation. Histopaque 1077 (15 mL, Sigma, St. Louis, MO) was transferred to 6×50 mL sterile polypropylene conical tubes. The Histopaque was overlayed with 15-25 mL of blood diluted 1:2 in Hank's Balanced Salts Solution (HBSS) (Gibco, Life Technologies, Grand Island, NY). The tubes were then centrifuged at 1370 revolutions per minute (rpm) for 30 min at 20° C., with no brake (400×g, GH 3.8A Rotor).
The interface (buffy coat) containing the PBMC was collected and placed in a new sterile 50 mL conical polypropylene centrifuge tube. The PBMC were mixed with an equal volume of HBSS (about 20 mL from the interface and about 20 mL of HBSS), and then centrifuged at 1090 rpm, 10 min, 20° C., with brake (270×g, GH 3.8A Rotor). After completing centrifugation, the cells were resuspended in 2-3 mL ACK Red blood cell lysis buffer (ammonium chloride potassium solution, Gibco, Life Technologies) and incubated for 2-5 min at 20° C. Next, HBSS (40 mL) was added to the cells, and the sample was centrifuged at 270×g for 10 min at 20° C. The supernatant was decanted, and the cell pellet was resuspended in 5 mL AIM V Medium (Gibco, Life Technologies). Cell aggregates and debris were removed by filtering the cell solution through a BD Falcon 70 micron nylon cell strainer (BD Biosciences, San Jose, CA).
The number of viable cells was determined by counting with a Miltenyi FACS instrument (Miltenyi Biotec Inc., San Diego, CA) or by using a hemacytometer. For determining cell viability with a hemacytometer, the cells were diluted 1/10 in 0.4% trypan blue and HBSS (specifically, 50 microliter of trypan blue+40 microliter of HBSS+10 microliter of cell solution were added to a microfuge tube and mixed). Ten microliters of the diluted cells were then applied to the hemacytometer, and the number of viable PBMC were determined by microscopy.
The PBMC sample was then resuspended in 96-well plates at a concentration of 8×10^5 cells/well in 0.1 mL of AIM-V medium. Each compound was solubilized in dimethyl sulfoxide (DMSO) to create a 3 mM stock solution. The stock solution was then further diluted with AIM-V medium to prepare the serial dilutions. The diluted compound (100 microliters) was then transferred to the PBMCs to produce testing sets with final compound concentrations of 30, 10, 3.3, 1.1, 0.37, 0.12, 0.04, 0.01 micromolar. The plates also had both positive and negative controls. The negative control wells contained only AIM-V medium with no example compound. The positive control wells contained a control set of imiquimod serially diluted to concentrations of 30, 10, 3.3, 1.1, 0.37, 0.12, 0.04, 0.01 micromolar. The concentrations used in the control set were selected to match the concentrations used in the testing set. The plates were then cultured at 37° C./5% CO2 for 21-24 h. Cell-free supernatants were harvested by centrifuging the 96-well plates at 2100 rpm, 23° C. for 10 min. Approximately 160 microliters of the supernatant was then stored in a NUNC 96-well plate, covered with the compression cap and stored at −80° C. until the cytokine analysis was done.
IFN-alpha cytokine levels (picograms/mL) were measured by ELISA (human IFN-alpha, pan specific, Mabtech, Cincinnati, OH). IFN-gamma and TNF-alpha levels (picograms/mL) were measured by multiplex bead assay (magnetic beads, R & D Systems, Minneapolis, MN) according to the manufacturer's instructions.
Specifically, the minimum effective concentration of each compound (micromolar) was determined as the lowest concentration of the compound that induced a measured cytokine response at a level ([…]) that was at least 2× greater than that observed with the negative control wells.

human TLR8 = molecular target: T2, human TLR8 (Homo sapiens, UniProt Q9NR97); assay: TLR activation, HEK-BLUE-hTLR8 SEAP reporter cells; conditions: HEK-BLUE-hTLR8, 16-20 h; SEAP response at least 2x vehicle control
T2 construct: host or cells: HEK293 (HEK-BLUE-hTLR8)
T2 sequence (Q9NR97 27-1041): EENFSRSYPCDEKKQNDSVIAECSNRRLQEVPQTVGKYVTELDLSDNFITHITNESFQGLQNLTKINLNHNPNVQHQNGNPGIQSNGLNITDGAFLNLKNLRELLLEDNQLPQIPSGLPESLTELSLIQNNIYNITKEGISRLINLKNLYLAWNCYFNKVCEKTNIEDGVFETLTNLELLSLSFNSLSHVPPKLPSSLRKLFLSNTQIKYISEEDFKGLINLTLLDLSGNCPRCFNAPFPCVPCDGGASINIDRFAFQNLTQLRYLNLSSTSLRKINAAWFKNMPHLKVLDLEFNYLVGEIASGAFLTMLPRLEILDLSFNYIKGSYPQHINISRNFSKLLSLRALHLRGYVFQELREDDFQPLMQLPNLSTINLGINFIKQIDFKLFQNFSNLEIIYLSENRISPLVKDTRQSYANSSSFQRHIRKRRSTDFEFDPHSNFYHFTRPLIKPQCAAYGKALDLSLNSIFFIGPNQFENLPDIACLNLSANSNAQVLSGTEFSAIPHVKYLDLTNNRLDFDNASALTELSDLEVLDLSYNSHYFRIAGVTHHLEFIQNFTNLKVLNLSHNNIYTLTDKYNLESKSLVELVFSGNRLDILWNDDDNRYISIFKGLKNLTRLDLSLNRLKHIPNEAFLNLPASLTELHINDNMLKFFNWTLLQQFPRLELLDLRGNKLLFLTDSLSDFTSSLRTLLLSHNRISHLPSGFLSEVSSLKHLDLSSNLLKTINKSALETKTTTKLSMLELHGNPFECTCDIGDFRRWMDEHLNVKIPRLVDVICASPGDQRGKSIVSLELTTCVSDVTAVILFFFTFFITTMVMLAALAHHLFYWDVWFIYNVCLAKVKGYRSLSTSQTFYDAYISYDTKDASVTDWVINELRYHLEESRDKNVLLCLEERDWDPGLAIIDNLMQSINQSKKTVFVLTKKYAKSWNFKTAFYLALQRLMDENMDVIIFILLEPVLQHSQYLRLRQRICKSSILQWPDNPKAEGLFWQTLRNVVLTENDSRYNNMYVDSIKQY
Protocol: as §1, §2, §3

Compound	MEC to Produce TLR Activation: TLR 7 (human TLR7) [µM]	MEC to Induce Cytokine: IFN-alpha [1] [µM]	MEC to Induce Cytokine: IFN-gamma [1] [µM]	MEC to Induce Cytokine: TNF-alpha [1] [µM]	MEC to Produce TLR Activation: TLR 8 (human TLR8) [µM]
CCOC[C@H](Cc1ccc(OCCO)cc1)n1cnc2c(N)nc3ccccc3c21 [Example 1, (S)-2-(4-(2-(4-amino-1H-imidazo[4,5-c]quinolin-1-yl)-3-ethoxypropyl)phenoxy)ethan-1-ol]	≤0.01	≤0.01	≤0.01	≤0.01	1.1
CCOC[C@H](Cc1ccc(OCCN)cc1)n1cnc2c(N)nc3ccccc3c21 [Example 2, (S)-1-(1-(4-(2-aminoethoxy)phenyl)-3-ethoxypropan-2-yl)-1H-imidazo[4,5-c]quinolin-4-amine]	≤0.01	≤0.01	≤0.01	≤0.01	1.1
